The solubility is how much of the substance goes into solution per volume.

The source of these data is EP0550006B1, “Use of N-acyl derivatives of aminoalcohols for the manufacture of a medicament for the treatment of pathologies involving mast cells” (LIFEGROUP S.p.A., priority 1991, dated 1993).

No end group written: not given here. Some results are limits rather than exact numbers.

A short description of data set [1]: organic solvent solubility. To be noted: for solubility: organic solvent or mixture.
Another data set can be described thus: water solubility. The conditions noted are these: for solubility: water; for water solubility: result in words.
Data set [2] concerns mast cells. Put plainly: in vivo mast cell degranulation induced by substance P, general subcutaneous administration. More on the design: species or system Sprague Dawley rats. To be noted: rat; compound 20 mg/kg subcutaneous, 30 minutes before substance P 10^-6 M s.c. in the auricular pinna; average of 500-800 cells; solvent group 12. How it is done: In this case 2-weeks old rats (Sprague Dawley, Charles River) were firstly subcutaneously treated with 20 mg/kg of the substances under question and after 30 minutes were exposed to the degranulation stimulus by s.c. administration of substance P (10^-6 M) in the auricular pinna. Then the rats were sacrificed and the ear pinna removed for histological assessment of mast cell degranulation by counting the number of degranulated mast cells.
The biological parameter of evaluation was the percentage of degranulated mast cells.
In Tab. 2 the obtained results are reported on an average of 500-800 cells.

The test system of data set [3] is Peritoneal mast cells of rat. Put plainly: in vitro mast cell degranulation induced by substance P. It is filed as cell-based. The conditions noted are these: compound 10^-5 M, 30 minutes incubation, then substance P 10^-4M. Here is the method:
Peritoneal mast cells of rat were taken according to the standard methodology described by Lagunoff (1975, Tech. Biochem. Biophys. Morphol., 2, pp. 289-305).
The cells were then cultured in MEM which 10% fetal calf serum was added to and then incubated in a Haereus^R incubator for 30 minutes.
The derivatives under question at the concentration of 10^-5 M were added to the incubation medium.
At the end of the incubation, the physiological degranulation stimulus represented also in the case by the substance P (10^-4M) was added.
The cells were then centrifugated in order to remove the supernatant formed by the incubation medium and were placed onto a slide after coloration with toluidine blue, for the analysis of the morphological aspect at the optical microscope.
Also under these conditions the parameter to be considered was the percentage of degranulated cells after stimulation with the Substance P.

In data set [4] the test system is mast cells. Put plainly: in vivo mast cell degranulation induced by substance P, intradermal (topical) application on the auricular pinna. To be noted: for % of degranulated mast cells: rat auricular pinna, compound 0.5 mg/kg intradermal, 10 minutes before substance P 10^-4 M intradermal, sacrifice after 30', solvent group 8. Set-up: species or system Sprague Dawley rats. How it is done: After 10 minutes a local administration of substance P ( 10^-4 M), able to induce a mast cells degranulation response, was carried out still by intradermal route. […] The inhibition degree in mast cells degranulation in the tissues of the animals treated with the compounds under question. in comparison with that of animals treated only with the physiological degranulation factor (substance P) was considered as a parameter for the biological activity.

The test system of data set [5] is inflammatory response. To be noted: substance extracted from yolk egg, administered to man; Coburn et al 1960; cited from earlier work.
The subject of data set [6] is human rheumatoid arthritis. The conditions noted are these: Perlik et al. 1974; cited from earlier work.
Data set [7] relates to inflammatory response. The conditions noted are these: tested animal; prior art; cited from earlier work.
The next data set in a line: physchem. To be noted: organic solvent or mixture.

With `O=C(CCCO)NCCO` [Example 7, N-(2-hydroxyethyl)-4-hydroxybutirramide], the solubility (in [1] (dmso); in data set [1] (ethanol); in “water solubility”) was over 10000 µg/mL throughout.

`O=C(NCCO)c1ccncc1` [Example 14, N-(2-hydroxyethyl)-isonicotinamide]: the solubility (in [1] (methanol); in the data set “water solubility”) was over 10000 µg/mL in each case.

`O=C(NCCO)c1ccccc1O` [Example 13, N-(2-hydroxethyl)-salicylamide]: the “% of degranulated mast cells” value with mast cells [2] is reported as 38%.

For the compound `O=C(CCCCC1CCSS1)NCCO` (racemic) [Example 15, N-(2-hydroxyethy)-DL-α-lipoamide], the solubility (in [1] (ethanol); in “water solubility”) was over 10000 µg/mL in each case. Further, the “% of degranulated mast cells” value in the data set on mast cells [2] came to 40%.

Consider `CCCCCCCCCCCC(=O)NCCO` [Example 5, N-(2-hydroxyethyl)-lauroylamide], for which the solubility in [1] (chloroform) and in data set [1] (dmso) was over 10000 µg/mL throughout. Besides, the “% of degranulated mast cells” value in the data set with mast cells [2] came out at 54%. For the same compound, in “water solubility”, the water solubility result is “poorly soluble”.

As to `CCCCCCCC/C=C\CCCCCCCC(=O)N(CCO)CCO` [Example 10, N,N -bis-(2-hydroxyethyl)-oleoylamide], the solubility in data set [1] (chloroform) and in data set [1] (dmso) was over 10000 µg/mL throughout. Further, the “% of degranulated mast cells” value in the data set on mast cells [2] was determined as 44%. Further, the water solubility result in “water solubility” is “poorly soluble”.

“substance P (RPKPQQFFGLM; ends and bridges not checked; UniProt P20366 58-68, looked up) [reference compound]”: the “% of degranulated mast cells” value in data set [3] was determined as 96%; in the data set on mast cells [2] it was 92%; in the data set on mast cells [4] it was 94%. Moreover, the “mast cells degranulation (morphological analysis)” value in the data set on mast cells [4] (rat pinna, intradermal, result in words) is given as “induced a degranulation in the majority of mast cells”.

For the compound `CCCCCCCCCCCCCCCC(=O)NCCO` [Example 1, N-palmitoylethanolamide], the “% of degranulated mast cells” value in data set [3] is reported as 52%; in the data set on mast cells [2], 65%; in the data set on mast cells [4], 50%. For the same compound, the “solubility in organic solvents” value in data set [1] (solvents in which soluble, in words) is listed as “hot methanol, CHCl3, DMSO”. Also, in the data set on inflammatory response [5], the therapeutic effect entry is listed as “not significant”. In [6], the therapeutic efficacy result is reported as “beneficial effects were not so remarkable”. Also, in “water solubility”, the water solubility entry is given as “insoluble”. Besides, the “inhibition of the inflammatory response” value with inflammatory response [7] is given as “generic activity in inhibiting the inflammatory response”.

For the compound `O=C(c1ccccc1)N(CCO)CCO` [Example 9, N,N -bis-(2-hydroxyethyl)-benzoylamide], the solubility (in data set [1] (dmso); in [1] (ethanol); in the data set “water solubility”) was over 10000 µg/mL each time. In addition, in the data set on mast cells [2], the “% of degranulated mast cells” value was found to be 36.8%.

With `CCCCCCCCCCCCCCCC(=O)NCC(C)O` (stereo not drawn) [Example 3, N-(2-hydroxypropyl)-palmitamide], the solubility in [1] (dmso) was over 3000 µg/mL; in data set [1] (n-octanol) it was over 10000 µg/mL. In addition, the “% of degranulated mast cells” value in the data set with mast cells [2] worked out at 49.5%. Further, the water solubility result in “water solubility” was “poorly soluble”.

With `CCCCCCCCCCCC(=O)N(CCO)CCO` [Example 6, N,N-bis(2-hydroxyethyl)-lauroylamide], the solubility in [1] (chloroform) and in data set [1] (dmso) was over 10000 µg/mL each time. Besides, in the data set on mast cells [2], the “% of degranulated mast cells” value is 28%. Moreover, the water solubility result in the data set “water solubility” is “poorly soluble”.

Regarding `CCCCCCCCCCCCCCCCCC(=O)NCCO` [Example 4, N-(2-hydroxyethyl)-stearoylamide], the “% of degranulated mast cells” value in the data set on mast cells [2] was 60%. The solubility in “physchem” (chloroform) is over 5000 µg/mL.

Consider `CCCCCCCCCCCCCCCC(=O)N(CCO)CCO` [Example 2, N,N-bis(2-hydroxyethyl)-palmitamide], for which the “% of degranulated mast cells” value in data set [3] is listed as 30%; in the data set on mast cells [2], 48%; in the data set with mast cells [4], 35%. Further, the solubility in data set [1] (dmso) was over 10000 µg/mL. Also, in the data set “water solubility”, the water solubility entry was “poorly soluble”.

Take `CCCCC/C=C\C/C=C\CCCCCCCC(=O)N(CCO)CCO` [Example 11, N,N -bis-(2-hydroxyethyl)-linoleoylamide]: the solubility in data set [1] (chloroform) and in data set [1] (ethanol) was over 10000 µg/mL each time. Besides, the “% of degranulated mast cells” value in the data set on mast cells [2] was determined as 71%. Besides, in the data set “water solubility”, the water solubility result is “poorly soluble”.

Turning to `C[C@H](CCC(=O)NCCO)[C@H]1CC[C@H]2[C@@H]3CC[C@@H]4C[C@H](O)CC[C@]4(C)[C@H]3C[C@H](O)[C@]12C` [Example 12, N-(2-hydroxyethyl)-desoxycholamide], in “physchem” (dmso), the solubility was over 10000 µg/mL.

Consider `O=C(NCCO)c1ccccc1` [Example 8, N-(2-hydroxyethyl)-benzoylamide], for which the solubility (in data set [1] (dmso); in [1] (ethanol); in “water solubility”) was over 10000 µg/mL in each case. In addition, in the data set with mast cells [2], the “% of degranulated mast cells” value amounted to 48.8%.
